Measured values taken from patent US11986471B2, “Compounds and methods of use” (Tango Therapeutics, Inc., priority 2018, dated 2024).

Key:
PRMT5 [1] = molecular target: T1, PRMT5 (Homo sapiens, UniProt O14744); test: PRMT5 IC50 assay in the presence of SAM as cofactor; type: biochemical
T1 construct: purchased Viva (custom protein)
How it was run: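 For the SAM-containing format, dividing IC50 by 1.5 yields Ki; for the MTA-containing format the divisor is 13.5. A third format without cofactor gives IC50 alone.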

PRMT5 [2] = molecular target: T1, PRMT5; test: PRMT5 IC50 assay with no cofactor; type: biochemical; conditions: read-out: No Co-factor IC50
How it was run: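 Enzyme: human PRMT5. Conditions: plus SAM, plus MTA, or cofactor-free. Output: IC50 (μM); Ki via IC50/1.5 (SAM) or IC50/13.5 (MTA).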

PRMT5 [3] = molecular target: T1, PRMT5; test: PRMT5 IC50 assay in the presence of MTA as cofactor; type: biochemical; conditions: for IC50: PRMT5, MTA as cofactor; for SAM/MTA Ratio: ratio between Ki in the presence of SAM and Ki in the presence of MTA
How it was run: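 Ki conversion: SAM arm, Ki=IC50/1.5; MTA arm, Ki=IC50/13.5. No-cofactor arm reported as IC50 only. Selectivity expressed as Ki(SAM)/Ki(MTA).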

HAP1 MTAP-intact = test: SDMA in-cell western assay, HAP1 MTAP-intact cell line; type: cell-based; conditions: Homo sapiens
How it was run: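 Symmetric dimethylarginine (SDMA) levels were measured by in-cell western in an isogenic HAP1 pair, one expressing endogenous MTAP and one MTAP-null, and IC50 values were derived for each line. Compounds whose IC50 ratio between the lines is 3-fold or more are classed as MTAP-selective.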

HAP1 MTAP-deleted = test: SDMA in-cell western assay, HAP1 MTAP-deleted cell line; type: cell-based; conditions: for IC50: Homo sapiens, HAP1 MTAP-deleted cell line; for MTAP Intact/Deleted Ratio: IC50 ratio HAP1 MTAP-intact / HAP1 MTAP-deleted
How it was run: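 Symmetric dimethylarginine (SDMA) levels were measured by in-cell western in MTAP-null HAP1 cells, one half of an MTAP-isogenic pair whose partner line expresses endogenous MTAP. Compound potency is reported as IC50.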

T1 sequence (O14744 whole entry): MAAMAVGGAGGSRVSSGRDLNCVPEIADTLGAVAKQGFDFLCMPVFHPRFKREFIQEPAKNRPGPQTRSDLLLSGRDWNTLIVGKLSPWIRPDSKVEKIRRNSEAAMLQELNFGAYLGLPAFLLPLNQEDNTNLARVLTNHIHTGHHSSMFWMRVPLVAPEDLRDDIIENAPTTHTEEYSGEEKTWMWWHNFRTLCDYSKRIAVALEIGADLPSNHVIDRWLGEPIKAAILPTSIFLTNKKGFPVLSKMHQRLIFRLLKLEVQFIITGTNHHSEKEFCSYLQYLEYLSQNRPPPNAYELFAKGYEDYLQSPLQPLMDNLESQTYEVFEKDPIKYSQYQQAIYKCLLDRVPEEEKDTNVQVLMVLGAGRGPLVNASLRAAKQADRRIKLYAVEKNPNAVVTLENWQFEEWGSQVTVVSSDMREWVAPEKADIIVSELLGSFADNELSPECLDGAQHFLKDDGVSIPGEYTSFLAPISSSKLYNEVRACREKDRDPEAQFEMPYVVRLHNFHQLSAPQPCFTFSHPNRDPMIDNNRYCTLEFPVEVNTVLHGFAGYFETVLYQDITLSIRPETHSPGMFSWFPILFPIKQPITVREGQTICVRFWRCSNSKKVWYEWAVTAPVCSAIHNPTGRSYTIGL
T1 sequence (Q9BQA1 whole entry partner): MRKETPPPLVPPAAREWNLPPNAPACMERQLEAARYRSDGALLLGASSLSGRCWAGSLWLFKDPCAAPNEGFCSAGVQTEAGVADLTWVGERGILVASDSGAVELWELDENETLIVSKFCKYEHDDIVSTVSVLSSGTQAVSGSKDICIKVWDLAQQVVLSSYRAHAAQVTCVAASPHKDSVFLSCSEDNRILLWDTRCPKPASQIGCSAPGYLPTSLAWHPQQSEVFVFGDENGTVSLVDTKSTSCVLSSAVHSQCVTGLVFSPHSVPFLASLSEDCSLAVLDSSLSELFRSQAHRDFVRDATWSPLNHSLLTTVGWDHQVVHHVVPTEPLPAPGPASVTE

| SMILES | IC50 (PRMT5 [1]) | IC50 (PRMT5 [2]) | IC50 (PRMT5 [3]) | SAM/MTA Ratio (PRMT5 [3]) | IC50 (HAP1 MTAP-intact) | IC50 (HAP1 MTAP-deleted) | MTAP Intact/Deleted Ratio (HAP1 MTAP-deleted) |
| --- | --- | --- | --- | --- | --- | --- | --- |
| Cn1nccc1COc1ccc2c(c1Cl)CCN(C[C@@H](O)CNC(=O)c1ccnc(NC3CCCC3)c1)C2 [Compound 275, (S)—N-(3-(5-chloro-6-((1-methyl-1H-pyrazol-5-yl)methoxy)-3,4-dihydroisoquinolin-2(1H)-yl)-2-hydroxypropyl)-2-(cyclopentylamino)isonicotinamide] | 500 to 5000 nM | ≥ 5 µM | 500 to 5000 nM | A (a Ki ratio greater than or equal to 10 fold between the Ki in the presence of SAM and the Ki in the presence of MTA) | ≥ 10 µM | ≥ 10 µM | C* (an IC50 ratio of less than 3 fold between the IC50 in the HAP1 MTAP-intact cell line and the HAP1 MTAP-deleted cell line) |
| Cc1c(OCc2ccnn2C)ccc2c1CCN(C[C@@H](O)CNC(=O)c1ccnc(NC3CCCC3)c1)C2 [Compound 277, (S)-2-(cyclopentylamino)-N-(2-hydroxy-3-(5-methyl-6-((1-methyl-1H-pyrazol-5-yl)methoxy)-3N-dihydroisoquinolin-2(1H)-yl)propyl)isonicotinamide] | 500 to 5000 nM | ≥ 5 µM | 500 to 5000 nM | A (a Ki ratio greater than or equal to 10 fold between the Ki in the presence of SAM and the Ki in the presence of MTA) | ≥ 10 µM | ≥ 10 µM | C* (an IC50 ratio of less than 3 fold between the IC50 in the HAP1 MTAP-intact cell line and the HAP1 MTAP-deleted cell line) |
| Cc1c(OCc2ccnn2C)ccc2c1CCN(C[C@@H](O)CNC(=O)c1ccnc(NC3CCCCC3)c1)C2 [Compound 278, (S)-2-(cyclohexylamino)-N-(2-hydroxy-3-(5-methyl-6-((1-methyl-1H-pyrazol-5-yl)methoxy)-3N-dihydroisoquinolin-2(1H)-yl)propyl)isonicotinamide] | 500 to 5000 nM | ≥ 5 µM | 500 to 5000 nM | A (a Ki ratio greater than or equal to 10 fold between the Ki in the presence of SAM and the Ki in the presence of MTA) | ≥ 10 µM | ≥ 10 µM | C* (an IC50 ratio of less than 3 fold between the IC50 in the HAP1 MTAP-intact cell line and the HAP1 MTAP-deleted cell line) |
| O=C(NC[C@H](O)CN1CCc2c(Cl)c(OCc3cnco3)cc(F)c2C1)c1ccnc(NC2CCC2)c1 [Compound 279, N-[(2S)-3-[5-chloro-8-fluoro-6-(oxazol-5-ylmethoxy)-3,4-dihydro-1H-isoquinolin-2-yl]-2-hydroxy-propyl]-2-(cyclobutylamino)pyridine-4-carboxamide] | 50 to 500 nM | ≥ 5 µM | 50 to 500 nM | A (a Ki ratio greater than or equal to 10 fold between the Ki in the presence of SAM and the Ki in the presence of MTA) | ≥ 10 µM | 1 to 10 µM | C* (an IC50 ratio of less than 3 fold between the IC50 in the HAP1 MTAP-intact cell line and the HAP1 MTAP-deleted cell line) |
| O=C(NC[C@H](O)CN1CCc2c(ccc(OCc3cn[nH]c3)c2Cl)C1)c1ccnc(NC2CCC2)c1 [Compound 280, N-[(2S)-3-[5-chloro-6-(1H-pyrazol-4-ylmethoxy)-3,4-dihydro-1H-isoquinolin-2-yl]-2-hydroxy-propyl]-2-(cyclobutylamino)pyridine-4-carboxamide] | 50 to 500 nM | ≥ 5 µM | 500 to 5000 nM |  | < 1 µM | < 1 µM | C* (an IC50 ratio of less than 3 fold between the IC50 in the HAP1 MTAP-intact cell line and the HAP1 MTAP-deleted cell line) |
| O=C(NC[C@H](O)CN1CCc2cc(OCc3cnco3)c(Cl)cc2C1)c1ccnc(NC2CCC2)c1 [Compound 281, N-[(2S)-3-[7-chloro-6-(oxazol-5-ylmethoxy)-3,4-dihydro-1H-isoquinolin-2-yl]-2-hydroxy-propyl]-2-(cyclobutylamino)pyridine-4-carboxamide] | 500 to 5000 nM | ≥ 5 µM | 50 to 500 nM | A (a Ki ratio greater than or equal to 10 fold between the Ki in the presence of SAM and the Ki in the presence of MTA) | ≥ 10 µM | 1 to 10 µM | C* (an IC50 ratio of less than 3 fold between the IC50 in the HAP1 MTAP-intact cell line and the HAP1 MTAP-deleted cell line) |
| Cn1nccc1COc1cc(F)c2c(c1Cl)CCN(C[C@@H](O)CNC(=O)c1ccnc(NC3CCC3)c1)C2 [Compound 282, N-[(2S)-3-[5-chloro-8-fluoro-6-[(2-methylpyrazol-3-yl)methoxy]-3,4-dihydro-1H-isoquinolin-2-yl]-2-hydroxy-propyl]-2-(cyclobutylamino)pyridine-4-carboxamide] | 500 to 5000 nM | ≥ 5 µM | 500 to 5000 nM | A (a Ki ratio greater than or equal to 10 fold between the Ki in the presence of SAM and the Ki in the presence of MTA) | ≥ 10 µM | ≥ 10 µM | C* (an IC50 ratio of less than 3 fold between the IC50 in the HAP1 MTAP-intact cell line and the HAP1 MTAP-deleted cell line) |
| Cc1ncoc1COc1ccc2c(c1)CCN(C[C@@H](O)CNC(=O)c1cccc(NC3CCC3)c1)C2 [Compound 283, (S)-3-(cyclobutylamino)-N-(2-hydroxy-3-(6-((4-methyloxazol-5-yl)methoxy)-3,4-dihydroisoquinolin-2(1H)-yl)propyl)benzamide] | 500 to 5000 nM | ≥ 5 µM | 500 to 5000 nM | A (a Ki ratio greater than or equal to 10 fold between the Ki in the presence of SAM and the Ki in the presence of MTA) | < 1 µM | < 1 µM | C* (an IC50 ratio of less than 3 fold between the IC50 in the HAP1 MTAP-intact cell line and the HAP1 MTAP-deleted cell line) |
| O=C(NC[C@H](O)CN1CCc2cc(OCc3cnco3)ccc2C1)c1cc(NC2CCC2)ncc1Cl [Compound 284, 5-chloro-2-(cyclobutylamino)-N-[(2S)-2-hydroxy-3-[6-(oxazol-5-ylmethoxy)-3N-dihydro-1H-isoquinolin-2-yl]propyl]pyridine-4-carboxamide] | 500 to 5000 nM | ≥ 5 µM | 50 to 500 nM | A (a Ki ratio greater than or equal to 10 fold between the Ki in the presence of SAM and the Ki in the presence of MTA) | < 1 µM | < 1 µM | C* (an IC50 ratio of less than 3 fold between the IC50 in the HAP1 MTAP-intact cell line and the HAP1 MTAP-deleted cell line) |
| CN1CCN(c2nc(NC3COC3)cc(C(=O)NC[C@H](O)CN3CCc4c(ccc(OCc5cnco5)c4Cl)C3)n2)CC1 [Compound 285, (S)—N-(3-(5-chloro-6-(oxazol-5-ylmethoxy)-3,4-dihydroisoquinolin-2(1H)-yl)-2-hydroxypropyl)-2-(4-methylpiperazin-1-yl)-6-(oxetan-3-ylamino)pyrimidine-4-carboxamide] | 50 to 500 nM | 0.5 to 5 µM | 50 to 500 nM | A (a Ki ratio greater than or equal to 10 fold between the Ki in the presence of SAM and the Ki in the presence of MTA) | ≥ 10 µM | 1 to 10 µM | C* (an IC50 ratio of less than 3 fold between the IC50 in the HAP1 MTAP-intact cell line and the HAP1 MTAP-deleted cell line) |
| CCN1CCN(c2cc(C(=O)NC[C@H](O)CN3CCc4cc(OCc5cnco5)ccc4C3)cc(NC3CCC3)n2)CC1 [Compound 286] | 50 to 500 nM | 0.5 to 5 µM | 50 to 500 nM | A (a Ki ratio greater than or equal to 10 fold between the Ki in the presence of SAM and the Ki in the presence of MTA) | 1 to 10 µM | 1 to 10 µM | B* (an IC50 ratio greater than or equal to 3 fold but lower than 10 fold between the IC50 in the HAP1 MTAP-intact cell line and the HAP1 MTAP-deleted cell line) |
| CC(C)Cc1cc(C(=O)NC[C@H](O)CN2CCc3c(ccc(OCc4cnco4)c3Cl)C2)cc(NC2CCC2)n1 [Compound 287] | 500 to 5000 nM | ≥ 5 µM | 500 to 5000 nM | A (a Ki ratio greater than or equal to 10 fold between the Ki in the presence of SAM and the Ki in the presence of MTA) | ≥ 10 µM | ≥ 10 µM | C* (an IC50 ratio of less than 3 fold between the IC50 in the HAP1 MTAP-intact cell line and the HAP1 MTAP-deleted cell line) |
| O=C(NC[C@H](O)CN1CCc2c(ccc(OCc3cnco3)c2Cl)C1)c1cc(NC2CCC2)nc(N2CCOCC2)c1 [Compound 288, (S)—N-(3-(5-chloro-6-(oxazol-5-ylmethoxy)-3N-dihydroisoquinolin-2(1H)-yl)-2-hydroxypropyl)-2-(cyclobutylamino)-6-morpholinoisonicotinamide] | 500 to 5000 nM | ≥ 5 µM | 50 to 500 nM | A (a Ki ratio greater than or equal to 10 fold between the Ki in the presence of SAM and the Ki in the presence of MTA) | ≥ 10 µM | 1 to 10 µM | C* (an IC50 ratio of less than 3 fold between the IC50 in the HAP1 MTAP-intact cell line and the HAP1 MTAP-deleted cell line) |
